In paper PMC10855533, “Saturation Transfer Difference NMR and Molecular Docking Interaction Study of Aralkyl-Thiodigalactosides as Potential Inhibitors of the Human-Galectin-3 Protein” (International Journal of Molecular Sciences, 2024):

Key:
hGal-3 = molecular target: hGal-3; parameters: method as in PMID 32955737; conditions: reference ligand TDG, ITC; cited from earlier work
hGal-3 protein = hGal-3 protein (Homo sapiens, UniProt P17931); assay: Competition STD 1H NMR titration against reference ligand TDG (5); format: binding; conditions: for Relative Affinity, Kd (ref.)/Kd (comp.): referenced to TDG (5), times stronger binding than TDG; for Kd: calculated from IC50 with Kd(ref.) of TDG and Lref 4 mM (Equation 2); for Kd / Relative STD Intensity of H-4 of TDG titrated by competitor: 303 K; for Relative STD Intensity of H-4 of TDG titrated by competitor: 40 μM hGal-3, 4 mM TDG (5); for IC50: competitor concentration for 50% displacement of 4 mM TDG (5), 40 μM hGal-3, exponential fit
Text: The competition STD NMR method provides an opportunity to characterize moderately and strongly bound protein–ligand systems (KD = 10^−6 M − 10^−9 M), where the determination is not feasible in direct STD experiment due to kinetic reasons. In the competition experiment, the concentration of the target protein and the reference ligand is kept at a constant level. An STD spectrum of the starting sample state is obtained. Then, by adding the competitive ligand in increasing concentration step-by-step, the resonance signal changes in the STD spectra can be monitored. If the competitor ligand binds strongly to the target protein, a decrease in the STD signal intensities of the reference ligand is observed. If the IC50 value is reached before the equimolar ratio of the reference and the competitor ligand, it can be concluded that the competitor binds more strongly than the selected reference compound to the protein. The strength of the interaction can be quantified by the determination of the dissociation constant value (KD).
By plotting the relative STD ^1H NMR signal intensities of the H-4 proton of the reference compound (5) as a function of the concentration of the given competitor ligand, the IC50 values can be determined (Figure 4). The IC50 value gives the concentration of the competitor ligand required to halve the signal intensity of the reference ligand in the STD spectrum, so it provides the competitor concentration required for 50% displacement of the reference compound (5). IC50 values were calculated based on the equation of the exponential function fitted to the points measured.
The dissociation constant of the interaction was calculated according to the following equation (Equation (1)):(1) Kd(ref.)=Lref×Kd(comp.)/IC50−Kd(comp.)
By rearranging this equation, the Kd value of the competitor ligand (Kd(comp.)) can be obtained (Equation (2)):(2) Kd(comp.)=Kd(ref.)×IC50/Lref+Kd(ref.) where Kd(ref.) refers to the dissociation constant of the reference ligand, Lref is the concentration of the reference ligand, Kd(comp.) is the dissociation constant of the competitor compound, and IC50 is the concentration of the competitor compound at half-signal intensity.

[1] = for Aggregation during the series of STD titration experiments: up to 1:1 reference and competition ligand ratio (4 mM)
Method: We chose the TDG (5), a well-known, moderately bound ligand of hGal-3, as a reference ligand for our competition STD ^1H NMR experiments. As a first step, we recorded an STD ^1H NMR spectrum on the starting sample, which always contained 40 μM hGal-3 protein and 4 mM TDG (1:100 protein reference ligand ratio). Then, the titration was started by adding the synthesized competitor ligand into the NMR sample step-by-step, and we performed STD experiments on each solution composition. […] Thus, the 100% STD effect was determined as the H-4 intensity value of TDG (5) in the initial sample state, and its relative decrease caused by adding the competitor ligand in increasing concentration was measured in each titration step (Table 1).
All ^1H STD NMR experiments were recorded on a Bruker Avance Neo 700 MHz spectrometer equipped with a 5 mm z-gradient (TCI) triple-tuned Prodigy cryoprobe. The measurements were performed at a temperature of 303 K. The data acquisition and processing were performed with TopSpin 3.6.2 and 4.1.1 software. Samples were prepared in 10 mM phosphate buffer solution (140 mM NaCl/KCl, pH = 7.4) in D2O. The initial sample contained 40 μM of hGal-3 protein and 4 mM of compound 5 for each experiment. Competitor ligands were added to the initial samples from stock solutions of different concentrations so that the smallest volume (2 μL) could be added in each titration step. […] The protein resonances were selectively irradiated in competition STD experiments by Eburp (90°) excitation pulses, with a length of 50 ms each with a maximum B1 field strength of 75 Hz yielding a total irradiation time of 3 s. The off-resonance pulse frequency was set to −40 ppm and the on-resonance frequency to 0 ppm. Off- and on-resonance data were recorded at alternate scans, and the corresponding FIDs were collected in separate memories of subsequent processing files, and STD spectra were produced after subtraction of the two subspectra. Competition STD spectra were typically recorded with 1200 repetitions (NS = 8, L4 = 150) to ensure an adequate signal-to-noise ratio for the analysis.

Sequence of hGal-3 protein (P17931 whole entry): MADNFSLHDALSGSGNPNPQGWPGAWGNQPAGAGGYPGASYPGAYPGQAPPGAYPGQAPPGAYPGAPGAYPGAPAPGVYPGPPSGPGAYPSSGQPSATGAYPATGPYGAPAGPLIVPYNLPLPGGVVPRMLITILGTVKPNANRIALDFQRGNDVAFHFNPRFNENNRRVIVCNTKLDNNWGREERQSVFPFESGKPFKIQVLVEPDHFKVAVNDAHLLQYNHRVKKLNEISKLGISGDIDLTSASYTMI

Structure (SMILES)	Kd (hGal-3) [µM]	Relative Affinity, Kd (ref.)/Kd (comp.) (hGal-3 protein)	Solubility ([1]; pH 7.4)	Kd (hGal-3 protein) [µM]	Relative STD Intensity of H-4 of TDG titrated by competitor (hGal-3 protein; competitor 10 μM) [%]	Relative STD Intensity of H-4 of TDG titrated by competitor (hGal-3 protein; competitor 20 μM) [%]	Relative STD Intensity of H-4 of TDG titrated by competitor (hGal-3 protein; competitor 30 μM) [%]	Relative STD Intensity of H-4 of TDG titrated by competitor (hGal-3 protein; competitor 40 μM) [%]	Relative STD Intensity of H-4 of TDG titrated by competitor (hGal-3 protein; competitor 50 μM) [%]	Relative STD Intensity of H-4 of TDG titrated by competitor (hGal-3 protein; competitor 60 μM) [%]	Relative STD Intensity of H-4 of TDG titrated by competitor (hGal-3 protein; competitor 100 μM) [%]	IC50 (hGal-3 protein) [µM]	Aggregation during the series of STD titration experiments [1]	Relative STD Intensity of H-4 of TDG titrated by competitor (hGal-3 protein; competitor 80 μM) [%]	Relative STD Intensity of H-4 of TDG titrated by competitor (hGal-3 protein; competitor 250 μM) [%]	Relative STD Intensity of H-4 of TDG titrated by competitor (hGal-3 protein; competitor 300 μM) [%]	Relative STD Intensity of H-4 of TDG titrated by competitor (hGal-3 protein; competitor 4000 μM) [%]	Relative STD Intensity of H-4 of TDG titrated by competitor (hGal-3 protein; competitor 120 μM) [%]	Relative STD Intensity of H-4 of TDG titrated by competitor (hGal-3 protein; competitor 160 μM) [%]	Relative STD Intensity of H-4 of TDG titrated by competitor (hGal-3 protein; competitor 400 μM) [%]
OC[C@H]1O[C@@H](S[C@@H]2O[C@H](CO)[C@H](O)[C@H](O)[C@H]2O)[C@H](O)[C@@H](O)[C@H]1O [Compound 5, Bis-(β-D-Galactopyranosyl)-Sulfane, reference compound]	51.4	1	–	–	–	–	–	–	–	–	–	–	–	–	–	–	–	–	–	–
OC[C@H]1O[C@@H](S[C@@H]2O[C@H](CO)[C@H](O)[C@H](OCc3ccc4ccccc4c3)[C@H]2O)[C@H](O)[C@@H](OCc2ccc3ccccc3c2)[C@H]1O [Compound 2, Bis-{3-O-[(Naphtalene-2-yl)Methyl]-β-D-Galactopyranosyl}-Sulfane]	–	94	uncertain	0.55	86	68	59	55	37	33	24	43	–	–	–	–	–	–	–	–
OC[C@H]1O[C@@H](S[C@@H]2O[C@H](CO)[C@H](O)[C@H](OCc3ccc4ccccc4n3)[C@H]2O)[C@H](O)[C@@H](OCc2ccc3ccccc3n2)[C@H]1O [Compound 1, Bis-{3-O-[(Quinoline-2-yl)Methyl]-β-D-Galactopyranosyl}-Sulfane]	–	30	–	1.7	–	–	–	78	–	–	61	134	did not observe any aggregation	65	33	24	0	–	–	–
OC[C@H]1O[C@@H](S[C@@H]2O[C@H](CO)[C@H](O)[C@H](OCc3ccccc3)[C@H]2O)[C@H](O)[C@@H](OCc2ccccc2)[C@H]1O [Compound 3, Bis-(3-O-Benzyl-β-D-Galactopyranosyl)-Sulfane]	–	24	–	2.19	–	–	–	85	–	–	–	172	did not observe any aggregation	75	31	–	0	64	50	28
